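All cell lines were grown in 96-well plates and treated with compound for 48 hours. The concentration for 50% growth inhibition is given as GI50. TGI: total growth inhibition.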
Assays:
Test in all cases: inhibition of tumour cell growth, NCI panel, 48 h
786-0 renal = test system: 786-0 renal
A498 renal = test system: A498 renal
A549 NSCLC = test system: A549 NSCLC
BT-549 breast = test system: BT-549 breast
CAKI-1 renal = test system: CAKI-1 renal
CCRF-CEM leukemia = test system: CCRF-CEM leukemia
COLO 205 colon = test system: COLO 205 colon
DU-145 prostate = test system: DU-145 prostate
EKVX NSCLC = test system: EKVX NSCLC
HCT-116 colon = test system: HCT-116 colon
HL-60(TB) leukemia = test system: HL-60(TB) leukemia
HOP-62 NSCLC = test system: HOP-62 NSCLC
HOP-92 NSCLC = test system: HOP-92 NSCLC
HS 578T breast = test system: HS 578T breast
HT29 colon = test system: HT29 colon
IGROV1 ovarian = test system: IGROV1 ovarian
K-562 leukemia = test system: K-562 leukemia
KM12 colon = test system: KM12 colon
LOX IMVI melanoma = test system: LOX IMVI melanoma
M14 melanoma = test system: M14 melanoma
MALME-3M melanoma = test system: MALME-3M melanoma
MCF7 breast = test system: MCF7 breast
MDA-MB-231 breast = test system: MDA-MB-231 breast
MDA-MB-435 = test system: MDA-MB-435
NCI-H226 lung = test system: NCI-H226 lung
NCI-H23 lung = test system: NCI-H23 lung
NCI-H460 lung = test system: NCI-H460 lung
NCI-H522 lung = test system: NCI-H522 lung
NCI/ADR-RES ovarian = test system: NCI/ADR-RES ovarian
OVCAR-3 ovarian = test system: OVCAR-3 ovarian
OVCAR-4 ovarian = test system: OVCAR-4 ovarian
OVCAR-5 ovarian = test system: OVCAR-5 ovarian
OVCAR-8 ovarian = test system: OVCAR-8 ovarian
PC-3 prostate = test system: PC-3 prostate
RPMI-8226 leukemia = test system: RPMI-8226 leukemia
RXF 393 renal = test system: RXF 393 renal
SF-268 CNS = test system: SF-268 CNS
SF-295 CNS = test system: SF-295 CNS
SF-539 CNS = test system: SF-539 CNS
SK-MEL-2 melanoma = test system: SK-MEL-2 melanoma
SK-MEL-28 melanoma = test system: SK-MEL-28 melanoma
SK-MEL-5 melanoma = test system: SK-MEL-5 melanoma
SK-OV-3 ovarian = test system: SK-OV-3 ovarian
SN12C renal = test system: SN12C renal
SNB-19 CNS = test system: SNB-19 CNS
SNB-75 CNS = test system: SNB-75 CNS
SR leukemia = test system: SR leukemia
SW-620 colon = test system: SW-620 colon
T-47D breast = test system: T-47D breast
TK-10 renal = test system: TK-10 renal
U251 CNS = test system: U251 CNS
UACC-257 melanoma = test system: UACC-257 melanoma
UACC-62 melanoma = test system: UACC-62 melanoma
UO-31 renal = test system: UO-31 renal

CN1CCN(Cc2ccc(Nc3ncc(Cl)c(Nc4ccccc4S(=O)(=O)N(C)C)n3)cc2)CC1
GI50 (786-0 renal): 52.4 nM
TGI (786-0 renal): 1280 nM
GI50 (A498 renal): 114 nM
TGI (A498 renal): 327 nM
GI50 (A549 NSCLC): 36.5 nM
TGI (A549 NSCLC): 1700 nM
GI50 (BT-549 breast): 137 nM
TGI (BT-549 breast): 374 nM
GI50 (CAKI-1 renal): 37.7 nM
TGI (CAKI-1 renal): 1090 nM
GI50 (CCRF-CEM leukemia): < 18.7 nM
TGI (CCRF-CEM leukemia): > 100000 nM
GI50 (COLO 205 colon): 27.8 nM
TGI (COLO 205 colon): 222 nM
GI50 (DU-145 prostate): 51.6 nM
TGI (DU-145 prostate): > 100000 nM
GI50 (EKVX NSCLC): 31.7 nM
TGI (EKVX NSCLC): 366 nM
GI50 (HCT-116 colon): < 15.7 nM
GI50 (HL-60(TB) leukemia): 17.5 nM
TGI (HL-60(TB) leukemia): 198 nM
GI50 (HOP-62 NSCLC): 34.4 nM
TGI (HOP-62 NSCLC): 900 nM
GI50 (HOP-92 NSCLC): 99.9 nM
TGI (HOP-92 NSCLC): 1680 nM
GI50 (HS 578T breast): 98.4 nM
TGI (HS 578T breast): 1180 nM
GI50 (HT29 colon): 30.8 nM
TGI (HT29 colon): 577 nM
GI50 (IGROV1 ovarian): 24.9 nM
TGI (IGROV1 ovarian): 1630 nM
GI50 (K-562 leukemia): 38.6 nM
TGI (K-562 leukemia): > 100000 nM
GI50 (KM12 colon): 24.4 nM
TGI (KM12 colon): > 100000 nM
GI50 (LOX IMVI melanoma): < 14.3 nM
TGI (LOX IMVI melanoma): 124 nM
GI50 (M14 melanoma): 60.8 nM
TGI (M14 melanoma): 277 nM
GI50 (MALME-3M melanoma): 92 nM
TGI (MALME-3M melanoma): 379 nM
GI50 (MCF7 breast): < 10 nM
TGI (MCF7 breast): 1170 nM
GI50 (MDA-MB-231 breast): 22.2 nM
TGI (MDA-MB-231 breast): 376 nM
GI50 (MDA-MB-435): 27.4 nM
TGI (MDA-MB-435): 429 nM
GI50 (NCI-H226 lung): 91.5 nM
TGI (NCI-H226 lung): 859 nM
GI50 (NCI-H23 lung): 33.8 nM
TGI (NCI-H23 lung): 358 nM
GI50 (NCI-H460 lung): < 13.1 nM
TGI (NCI-H460 lung): 198 nM
GI50 (NCI-H522 lung): < 24.6 nM
TGI (NCI-H522 lung): 255 nM
GI50 (NCI/ADR-RES ovarian): 74.7 nM
TGI (NCI/ADR-RES ovarian): 1240 nM
GI50 (OVCAR-3 ovarian): 61 nM
TGI (OVCAR-3 ovarian): > 100000 nM
GI50 (OVCAR-4 ovarian): 72 nM
TGI (OVCAR-4 ovarian): 649 nM
GI50 (OVCAR-5 ovarian): 37.8 nM
TGI (OVCAR-5 ovarian): > 100000 nM
GI50 (OVCAR-8 ovarian): 73.8 nM
GI50 (PC-3 prostate): 73.1 nM
TGI (PC-3 prostate): > 100000 nM
GI50 (RPMI-8226 leukemia): 10.3 nM
TGI (RPMI-8226 leukemia): 1240 nM
GI50 (RXF 393 renal): 33 nM
TGI (RXF 393 renal): 122 nM
GI50 (SF-268 CNS): 99.7 nM
TGI (SF-268 CNS): 1020 nM
GI50 (SF-295 CNS): 16.9 nM
TGI (SF-295 CNS): > 100000 nM
GI50 (SF-539 CNS): 114 nM
TGI (SF-539 CNS): 343 nM
GI50 (SK-MEL-2 melanoma): 45.8 nM
TGI (SK-MEL-2 melanoma): 172 nM
GI50 (SK-MEL-28 melanoma): 49.7 nM
TGI (SK-MEL-28 melanoma): 415 nM
GI50 (SK-MEL-5 melanoma): 75.9 nM
TGI (SK-MEL-5 melanoma): 387 nM
GI50 (SK-OV-3 ovarian): 219 nM
TGI (SK-OV-3 ovarian): > 100000 nM
GI50 (SN12C renal): 39.9 nM
TGI (SN12C renal): 1230 nM
GI50 (SNB-19 CNS): 52.9 nM
TGI (SNB-19 CNS): 2960 nM
GI50 (SNB-75 CNS): 94.8 nM
TGI (SNB-75 CNS): 308 nM
GI50 (SR leukemia): < 10 nM
GI50 (SW-620 colon): 25.4 nM
TGI (SW-620 colon): > 100000 nM
GI50 (T-47D breast): 116 nM
TGI (T-47D breast): 965 nM
GI50 (TK-10 renal): 81.9 nM
TGI (TK-10 renal): 1190 nM
GI50 (U251 CNS): 38 nM
TGI (U251 CNS): 1460 nM
GI50 (UACC-257 melanoma): 47.3 nM
TGI (UACC-257 melanoma): 820 nM
GI50 (UACC-62 melanoma): 22.9 nM
TGI (UACC-62 melanoma): 180 nM
GI50 (UO-31 renal): 38.7 nM
TGI (UO-31 renal): 1400 nM
